Values quoted from earlier work, collected in patent US20100292280A1, “ANTI-PYRETIC VASODILATORS” (priority 2007, published 2010).

Experiments:
[1] = tested on: forearm and dorsum of the foot skin of healthy subjects and diabetic neuropathic patients
healthy adults = conditions: ingestion of 5 mg niacin per Kg body weight
skin = conditions: doses of niacin over 50 mg

SMILES | vasodilatory response compared to the acetylcholine and sodium nitroprusside responses ([1]; control group, foot) | vasodilatory response, comparison between agents ([1]; control group, forearm) | maximal vasodilatory response, comparison between agents ([1]; diabetic patients, forearm and foot level) | time after application at which vasodilation was present ([1]; topical 1% methyl nicotinate) | time of decline of vasodilation to pre-application levels ([1]; topical 1% methyl nicotinate) | time of peak vasodilation ([1]; topical 1% methyl nicotinate) | duration of the decrease of core body temperature (healthy adults) | time at which the sharp decrease in body temperature begins, after oral ingestion (healthy adults) | time of the peak of continuous temperature reduction, after ingestion (healthy adults) | undesired side effect reported by a significant portion of the subjects (healthy adults) | decrease of core body temperature (healthy adults; on average) | duration of flushing of the skin (skin)
COC(=O)c1cccnc1 [methyl nicotinate] | higher | similar | similar | 5 min | 120 min | 15 to 30 min |  |  |  |  |  | 
O=C(O)c1cccnc1 [niacin, nicotinic acid] |  |  |  |  |  |  | about 70 minutes | about 20 minutes | about 50 minutes | sever hypotension | 0.44 °C | about 60 minutes
